In PubChem BioAssay AID248 (DTP/NCI, 2004):
Values joined by “and” are separate entries in the source; they are usually repeats but may differ in a detail not shown here. Identical values can stand only once. Toxic doses and inconclusive results are not listed. Rule as the data show it: active = T/C of 150% or more; inactive = T/C below 125%.

Tested on: L1210 leukemia ip in BDF1 mice, survival T/C
Assay: NCI In Vivo Anticancer Drug Screen. Data for tumor model L1210 Leukemia (intraperitoneal) in B6D2F1 (BDF1) mice
Details: endpoint: mean survival time, higher = longer survival
Procedure: The antitumor activity of compounds was measured in mice bearing transplantable tumors. Survival or tumor size were measured and the results are expressed as the measurement made in the treated group (T) divided by the measurement made in the vehicle treated control group (C). The tumor model used in this assay is L1210 Leukemia (intraperitoneal) in B6D2F1 (BDF1) mice

[1] = dose: 100.0 mg/kg/injection, schedule: Q01DX009 (ip), vehicle: saline
[2] = dose: 200.0 mg/kg/injection, schedule: Q01DX009 (ip), vehicle: saline
[3] = dose: 400.0 mg/kg/injection, schedule: Q01DX009 (ip), vehicle: saline
[4] = dose: 100.0 mg/kg/injection, schedule: Q04DX002 (ip), vehicle: Klucel (hydroxypropylcellulose) (HPC)
[5] = dose: 200.0 mg/kg/injection, schedule: Q04DX002 (ip), vehicle: Klucel (hydroxypropylcellulose) (HPC)
[6] = dose: 100.0 mg/kg/injection, schedule: Q04DX003 (ip), vehicle: Klucel (hydroxypropylcellulose) (HPC)
[7] = dose: 200.0 mg/kg/injection, schedule: Q04DX003 (ip), vehicle: Klucel (hydroxypropylcellulose) (HPC)
[8] = dose: 400.0 mg/kg/injection, schedule: Q04DX003 (ip), vehicle: Klucel (hydroxypropylcellulose) (HPC)
[9] = dose: 100.0 mg/kg/injection, schedule: Q01DX001 (ip), vehicle: saline with Tween-80
[10] = dose: 100.0 mg/kg/injection, schedule: Q01DX009 (ip), vehicle: saline with Tween-80
[11] = dose: 200.0 mg/kg/injection, schedule: Q01DX001 (ip), vehicle: saline with Tween-80
[12] = dose: 200.0 mg/kg/injection, schedule: Q01DX009 (ip), vehicle: saline with Tween-80
[13] = dose: 400.0 mg/kg/injection, schedule: Q01DX001 (ip), vehicle: saline with Tween-80
[14] = dose: 400.0 mg/kg/injection, schedule: Q01DX009 (ip), vehicle: saline with Tween-80
[15] = dose: 100.0 mg/kg/injection, schedule: Q01DX001 (ip), vehicle: saline
[16] = dose: 400.0 mg/kg/injection, schedule: Q04DX002 (ip), vehicle: Klucel (hydroxypropylcellulose) (HPC)
[17] = dose: 200.0 mg/kg/injection, schedule: Q01DX001 (ip), vehicle: saline
[18] = dose: 400.0 mg/kg/injection, schedule: Q01DX001 (ip), vehicle: saline
[19] = dose: 50.0 mg/kg/injection, schedule: Q01DX009 (ip), vehicle: saline with Tween-80
[20] = dose: 50.0 mg/kg/injection, schedule: Q01DX001 (ip), vehicle: carboxymethylcellulose (CMC)
[21] = dose: 100.0 mg/kg/injection, schedule: Q01DX001 (ip), vehicle: carboxymethylcellulose (CMC)
[22] = dose: 200.0 mg/kg/injection, schedule: Q01DX001 (ip), vehicle: carboxymethylcellulose (CMC)
[23] = dose: 400.0 mg/kg/injection, schedule: Q01DX001 (ip), vehicle: carboxymethylcellulose (CMC)
[24] = dose: 100.0 mg/kg/injection, schedule: Q04DX003 (ip), vehicle: saline with Tween-80
[25] = dose: 200.0 mg/kg/injection, schedule: Q04DX003 (ip), vehicle: saline with Tween-80
[26] = dose: 400.0 mg/kg/injection, schedule: Q04DX003 (ip), vehicle: saline with Tween-80

Measured: T/C

Nc1nc(N)c2nc3c(nc2n1)C(=O)N(c1ccc(C(=O)NC(CCC(=O)O)C(=O)O)cc1)C3 (centres undefined)
inactive: [1] 94 % of control | [2] 98 % of control | [3] 86 % of control

O=C1NC(=S)S/C1=C\c1ccc([N+](=O)[O-])s1
inactive: [4] 90 % of control | [5] 93 % of control

O=C(CN1CCCCC1)c1ccc2oc3ccccc3c2c1
inactive: [6] 96 % of control | [7] 96 % of control | [8] 87 % of control

COc1ccc(Cl)cc1NC(=O)Oc1ccc(SC)c(C)c1
inactive: [9] 95 % of control | [10] 95 % of control | dose: 100.0 mg/kg/injection, schedule: Q04DX002 (ip), vehicle: saline with Tween-80 97 % of control and 98 % of control | [11] 91 % of control | [12] 98 % of control | dose: 200.0 mg/kg/injection, schedule: Q04DX002 (ip), vehicle: saline with Tween-80 98 % of control and 89 % of control | [13] 91 % of control | [14] 90 % of control | dose: 400.0 mg/kg/injection, schedule: Q04DX002 (ip), vehicle: saline with Tween-80 92 % of control and 98 % of control

CCOC(=O)Nc1cc(NC(C)CCCN(CC)CC)c2nc(-c3ccccc3)c(-c3ccccc3)nc2n1 (centres undefined)
inactive: dose: 50.0 mg/kg/injection, schedule: Q01DX001 (ip), vehicle: saline 93 % of control | [15] 90 % of control

c1ccc(Oc2ccccn2)cc1
inactive: dose: 50.0 mg/kg/injection, schedule: Q04DX003 (ip), vehicle: Klucel (hydroxypropylcellulose) (HPC) 91 % of control | [6] 94 % of control | [7] 94 % of control | [8] 97 % of control

CCCCCCCCCCCCCCCCOc1ccc(CC)cc1
inactive: [6] 91 % of control

CCOC(=O)c1ccc(NCc2cnc3nc(N)nc(N)c3n2)cc1
inactive: dose: 3.0 mg/kg/injection, schedule: Q01DX009 (ip), vehicle: other 106 % of control | dose: 6.0 mg/kg/injection, schedule: Q01DX009 (ip), vehicle: other 102 % of control | dose: 12.0 mg/kg/injection, schedule: Q01DX009 (ip), vehicle: other 98 % of control | dose: 24.0 mg/kg/injection, schedule: Q01DX009 (ip), vehicle: other 98 % of control

Nc1nc(Cl)c(N=Nc2ccc(Cl)cc2)c(NC2CC(O)C(CO)C2)n1 (centres undefined)
inactive: [4] 104 % of control | [5] 100 % of control | [16] 96 % of control

CCCCCOC(=O)C(C)(O)C(Cl)c1ccccc1 (centres undefined)
inactive: dose: 100.0 mg/kg/injection, schedule: Q04DX002 (ip), vehicle: saline 102 % of control and 106 % of control | dose: 200.0 mg/kg/injection, schedule: Q04DX002 (ip), vehicle: saline 98 % of control and 103 % of control | dose: 400.0 mg/kg/injection, schedule: Q04DX002 (ip), vehicle: saline 91 % of control | dose: 600.0 mg/kg/injection, schedule: Q04DX002 (ip), vehicle: saline 117 % of control

COC(=O)C1=C(\N2CCOCC2)CCCCC/C=C\1C(=O)OC
inactive: [10] 94 % of control | [12] 91 % of control | [14] 89 % of control

CSc1ccc2c(c1)N(CCCN(C)C)c1ccccc1S2
inactive: dose: 0.78 mg/kg/injection, schedule: Q04DX003 (ip), vehicle: saline 98 % of control and 99 % of control | dose: 1.56 mg/kg/injection, schedule: Q04DX003 (ip), vehicle: saline 103 % of control and 107 % of control | dose: 3.12 mg/kg/injection, schedule: Q01DX009 (ip), vehicle: saline 103 % of control | dose: 3.12 mg/kg/injection, schedule: Q04DX003 (ip), vehicle: saline 98 % of control and 102 % of control | dose: 6.25 mg/kg/injection, schedule: Q01DX009 (ip), vehicle: saline 120 % of control | dose: 6.25 mg/kg/injection, schedule: Q04DX003 (ip), vehicle: saline 101 % of control and 107 % of control | dose: 12.5 mg/kg/injection, schedule: Q01DX009 (ip), vehicle: saline 122 % of control | dose: 12.5 mg/kg/injection, schedule: Q04DX003 (ip), vehicle: saline 104 % of control | dose: 25.0 mg/kg/injection, schedule: Q04DX003 (ip), vehicle: saline 109 % of control

CCOC(=O)C1=C(NNC(N)=S)C2CCN1CC2
inactive: [15] 105 % of control | [17] 100 % of control | [18] 101 % of control

O=c1ccc2c(c1)oc1cccc3c(=O)c4ccccc4c2c13
inactive: [19] 97 % of control | [10] 101 % of control

COC1(OC)C2(Cl)C(Cl)=C(Cl)C1(Cl)C1C2CS1(=O)=O (centres undefined)
inactive: [20] 100 % of control | [21] 92 % of control | [22] 100 % of control | [23] 89 % of control

CCN(CC)CCNC(c1ccc(OC)cc1)C(Cl)(Cl)Cl (centres undefined)
inactive: dose: 75.0 mg/kg/injection, schedule: Q01DX001 (ip), vehicle: saline 97 % of control | dose: 150.0 mg/kg/injection, schedule: Q01DX001 (ip), vehicle: saline 91 % of control

COC(=O)c1ccc(=O)n(C/C=C(\C)CCC=C(C)C)c1
inactive: [15] 95 % of control | [1] 104 % of control | [17] 97 % of control | [2] 90 % of control | [18] 101 % of control | [3] 101 % of control

NC(=O)c1cn[nH]c1NC(=O)/C=C/c1cccc([N+](=O)[O-])c1
inactive: dose: 50.0 mg/kg/injection, schedule: Q01DX001 (ip), vehicle: Klucel (hydroxypropylcellulose) (HPC) 92 % of control | dose: 100.0 mg/kg/injection, schedule: Q01DX001 (ip), vehicle: Klucel (hydroxypropylcellulose) (HPC) 96 % of control | dose: 200.0 mg/kg/injection, schedule: Q01DX001 (ip), vehicle: Klucel (hydroxypropylcellulose) (HPC) 91 % of control

Cc1ccccc1OP(=O)(Oc1ccccc1C)Oc1ccccc1C
inactive: [20] 104 % of control | [21] 101 % of control | [22] 95 % of control | [23] 93 % of control

CC1(C)[C@H]2CC[C@@]1(C)C(=O)[C@H]2[N+](=O)[O-]
inactive: [6] 103 % of control | [7] 86 % of control | [8] 93 % of control

CN(C)C1CS(=O)(=O)C1C1CS(=O)(=O)C1 (centres undefined)
inactive: [4] 89 % of control | [5] 86 % of control | [16] 96 % of control

N#CCCCc1ccccc1
inactive: dose: 50.0 mg/kg/injection, schedule: Q01DX009 (ip), vehicle: Klucel (hydroxypropylcellulose) (HPC) 96 % of control | dose: 100.0 mg/kg/injection, schedule: Q01DX009 (ip), vehicle: Klucel (hydroxypropylcellulose) (HPC) 104 % of control | dose: 200.0 mg/kg/injection, schedule: Q01DX009 (ip), vehicle: Klucel (hydroxypropylcellulose) (HPC) 112 % of control

Cc1cccc(C[Si](C)C)c1
inactive: [15] 95 % of control and 104 % of control | [17] 124 % of control | [18] 93 % of control and 98 % of control

COC(=O)Nc1nc2ccccc2[nH]1
inactive: [19] 97 % of control | [21] 94 % of control | [10] 101 % of control | [24] 94 % of control | [22] 97 % of control | [12] 97 % of control | [25] 103 % of control | [23] 100 % of control | [14] 116 % of control | [26] 105 % of control

CCOc1ccccc1/C=N/N1CCN(/N=C/c2ccccc2OCC)CC1
inactive: [15] 100 % of control | [17] 90 % of control | [18] 90 % of control

Cc1nc2ccccc2cc1CCl
inactive: dose: 75.0 mg/kg/injection, schedule: Q01DX001 (ip), vehicle: acetone 88 % of control | dose: 150.0 mg/kg/injection, schedule: Q01DX001 (ip), vehicle: acetone 88 % of control

NCCc1cnc(N=Nc2ccc(S(N)(=O)=O)cc2)[nH]1
inactive: [24] 93 % of control | [25] 96 % of control | [26] 86 % of control

Nc1nc(SCc2ccccc2)c2nnn(C3OC(CO)C(O)C3O)c2n1 (centres undefined)
inactive: [9] 101 % of control | [11] 96 % of control | [13] 111 % of control
